The values that follow come from ChEMBL document CHEMBL3046108, “Comparison between antioxidant activity of 2,5-disubstituted 1,3,4-oxadiazoles containing heteroaromatic ring and aromatic ring at 2nd position” (Med Chem Res, 2011).

Format in all cases: functional
Assay [1] relates to Radical scavenging activity. Kind of assay: Antioxidant activity of the compound assessed as DPPH radical scavenging activity at 10 ug/ml after 30 min. Background: Loss of DPPH colour is used to gauge radical scavenging.
Assay [2] has as its system Radical scavenging activity. Kind of assay: Antioxidant activity of the compound assessed as DPPH radical scavenging activity at 4 ug/ml after 30 min.
Assay [3] relates to Radical scavenging activity. Briefly: Antioxidant activity of the compound assessed as DPPH radical scavenging activity at 8 ug/ml after 30 min.
Assay [4] has as its system Radical scavenging activity. Kind of assay: Antioxidant activity of the compound assessed as DPPH radical scavenging activity at 2 ug/ml after 30 min.
Assay [5] concerns Radical scavenging activity. Briefly: Antioxidant activity of the compound assessed as DPPH radical scavenging activity at 6 ug/ml after 30 min.
In assay [6] the test system is Radical scavenging activity. Kind of assay: Antioxidant activity of the compound assessed as DPPH radical scavenging activity after 30 min.

The structures appear in SMILES notation. ≈ marks a conversion by molar mass, not a printed value.

As a reminder, the inhibition is the drop in the measured response relative to a control, in per cent. As usually defined, the IC50 is the concentration that gives 50% inhibition. Regarding `Nc1ccc(-c2nnc(-c3ccccc3N)o2)c(O)c1`, the inhibition in assay [1] turned out to be 24.9%; in assay [2] it was 9.97%; in assay [3] it was 19.9%; in assay [4], 4.98%; in assay [5] it was 14.9%. Further, the IC50 in assay [6] stood at 20.05 µg/mL (≈ 74.7 µM).
Regarding `O=[N+]([O-])c1ccc(-c2nnc(-c3ccncc3)o2)cc1`, the inhibition in assay [1] was 39.8%; in assay [2] it was 14.9%; in assay [3], 31.5%; in assay [4] it was 6.66%; in assay [5], 23.2%. For the same compound, in assay [6], the IC50 turned out to be 12.47 µg/mL (≈ 46.5 µM).
Turning to `Nc1ccccc1-c1nnc(-c2ccc(Cl)cc2)o1`, the inhibition came to 59.5% in assay [1]; 23.5% in assay [2]; 50% in assay [3]; 12.3% in assay [4]; 36.2% in assay [5]. Also, the IC50 in assay [6] is 8.26 µg/mL (≈ 30.4 µM).
For `Nc1ccccc1-c1nnc(-c2cccc([N+](=O)[O-])c2)o1`, the inhibition in assay [1] came to 30.8%; in assay [2] it was 14.2%; in assay [3], 25.2%; in assay [4], 5.51%; in assay [5], 19.7%. The IC50 in assay [6] came to 16.04 µg/mL (≈ 56.8 µM).
As for `O=[N+]([O-])c1cccc(-c2nnc(-c3ccncc3)o2)c1`, the inhibition in assay [1] was determined as 71.2%; in assay [2] it was 28.7%; in assay [3], 57.7%; in assay [4], 15%; in assay [5], 42.5%. For the same compound, the IC50 in assay [6] came out at 6.99 µg/mL (≈ 26.1 µM).
For `Clc1ccc(-c2nnc(-c3ccncc3)o2)cc1`, the inhibition in assay [1] stood at 53.8%; in assay [2] it was 24.4%; in assay [3], 43.6%; in assay [4], 12.8%; in assay [5] it was 39%. For the same compound, the half-inhibitory concentration (IC50) in assay [6] was determined as 9.01 µg/mL (≈ 35 µM).
In the case of `Nc1ccccc1-c1nnc(-c2ccccc2N)o1`, the inhibition in assay [1] was found to be 64%; in assay [2], 25.8%; in assay [3] it was 52.1%; in assay [4], 12.1%; in assay [5], 38.6%. Further, the IC50 in assay [6] came out at 7.76 µg/mL (≈ 30.8 µM).
As for `O=C1O[C@H]([C@@H](O)CO)C(O)=C1O` [ASCORBIC ACID], the inhibition in assay [1] was determined as 87.3%; in assay [2] it was 35.3%; in assay [3], 69.3%; in assay [4], 18.2%; in assay [5], 53.2%. Moreover, the IC50 in assay [6] is 5.68 µg/mL (≈ 32.3 µM).
In the case of `Nc1ccc(-c2nnc(-c3ccncc3)o2)cc1`, the inhibition in assay [1] was determined as 41.4%; in assay [2] it was 16.5%; in assay [3], 33.1%; in assay [4], 8.27%; in assay [5], 24.8%. Besides, the IC50 in assay [6] was 12.08 µg/mL (≈ 50.7 µM).
Turning to `Cc1cccc(-c2nnc(-c3ccccc3N)o2)c1O`, the inhibition in assay [1] is 81.9%; in assay [2], 31.9%; in assay [3], 64.9%; in assay [4], 15.9%; in assay [5], 48.8%. Besides, in assay [6], the IC50 was 6 µg/mL (≈ 22.4 µM).
